According to US4745117A, “Imide derivatives and compositions for use as antipsychotic agents” (Sumitomo Pharmaceuticals Company, Limited, priority 1985, dated 1988):
Where two headings read alike, the source gives them in different places.

Tests used:
[1] = Extrapyramidal activity: catalepsy inducing activity test; set-up: species or system mice (dd strain male); conditions: mouse, in vivo
Procedure: (§1) (2) Extrapyramidal activity
(§2) This activity was examined through the catalepsy inducing activity test as described in M. Fujiwara et al.: Folia Formacol., Japon: 85, 259-274 (1985). A designated amount of the test compound was orally administered to dd strain male mice (bodyweight, 22 to 27 g), and 1 and 4 hours after the administration, catalepsy induction was checked according to the Wirth et al method. Thus, each of the animals was forced to hang the forepows onto a metal pole of 2.5 mm in diameter horizontally situated at a height of 5 cm to maintain a strained state. The test was made with three replications, and the presence of at least one case where the animal was kept in the strained state over a period of 30 seconds was deemed to have caused catalepsy.

[2] = test system: climbing behavior induced by apomorphine; assay: Neuroleptic activity: anti-climbing behavior test (suppression of climbing behavior induced by apomorphine); type: in vivo, mice (dd strain male); conditions: for ED50: Mus musculus, read-out: ED50 (50% effective dose), anti-climbing
catalepsy = assay: Extrapyramidal activity: catalepsy inducing activity test; set-up: species or system mice (dd strain male); conditions: mouse, in vivo
Procedure: as §1, §2

[3] = 50 min, Oral administration, apomorphine 1.0 mg/kg s.c. after 50 minutes, mice
[4] = sc, Subcutaneous administration, apomorphine 1.0 mg/kg s.c., mice

| Compound | TD50 ([1]; po) [mg/kg] | ED50 [2, 3] [mg/kg] | ED50 [2, 4] [mg/kg] | TD50 ([1]; oral administration, checked 1 and 4 hours after administration, mice, read-out: ED50, catalepsy induction) [mg/kg] | extrapyramidal activity (catalepsy inducing activity), in words (catalepsy) | ED50 ([2]; sc) [mg/kg] | neuroleptic activity (anti-climbing activity), in words ([2]; route not stated) |
| --- | --- | --- | --- | --- | --- | --- | --- |
| O=C1[C@@H]2[C@H]3CC[C@H](C3)[C@@H]2C(=O)N1CCCCN1CCN(c2nsc3ccccc23)CC1 [Compound No. 1, N-[4-{4-(1,2-Benzisothiazol-3-yl)-1-piperazinyl}butyl]bicyclo[2.2.1]heptane-2,3-di-exo-carboximide] | 68.1 | 2 | 0.15 | – | – | – | – |
| O=C1[C@@H]2[C@@H]3CC[C@@H](C3)[C@@H]2C(=O)N1CCCCN1CCN(c2nsc3ccccc23)CC1 [Compound No. 5, N--[4-{4-(1,2-Benzisothiazol-3-yl)-1-piperazinyl}butyl]bicyclo[2.2.1]heptane-2,3-di-endo-carboximide] | 112 | 2.6 | 0.13 | – | – | – | – |
| O=C(CCCN1CCC(O)(c2ccc(Cl)cc2)CC1)c1ccc(F)cc1 [Haloperidol, 4-[4-(4-chlorophenyl)-4-hydroxy-1-piperidinyl]-1-(4-fluorophenyl)-1-butanone] | – | – | – | < 5 | considerably high level of extra-pyramidal activity | 0.21 | significant neuroleptic activity |
| O=C1CC2(CCCC2)CC(=O)N1CCCCN1CCN(c2nsc3ccccc23)CC1 [Tiaspiron, 8-[4-(3-benzisothiazolyl)-1-piperazinylbutyl]-8-azaspiro[4,5]decane-7,9-dione] | – | > 10 | 0.23 | – | – | – | – |
